According to PMC8119466, “A screen of FDA-approved drugs identifies inhibitors of protein tyrosine phosphatase 4A3 (PTP4A3 or PRL-3)” (Scientific Reports, 2021):
Where a name gives a salt, the structure may show the parent alone. Read-outs that look alike come from different tables or passages of the source.

Tests used:
Type in all cases: biochemical
recombinant PRL-1 = target: T1, recombinant PRL-1 (Homo sapiens, UniProt Q93096); test: In vitro phosphatase assay (DiFMUP hydrolysis), PRL-1
T1 construct: 6xHis (N, cleaved yes); made in house; host or cells: E. coli One Shot BL21 Star
T1 sequence (Q93096 1-173): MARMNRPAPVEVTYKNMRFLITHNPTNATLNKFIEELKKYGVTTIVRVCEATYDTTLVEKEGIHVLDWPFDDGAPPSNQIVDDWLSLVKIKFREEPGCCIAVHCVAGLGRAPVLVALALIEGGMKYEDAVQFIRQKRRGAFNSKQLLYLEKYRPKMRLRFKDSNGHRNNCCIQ

recombinant PRL-2 = target: T2, recombinant PRL-2 (Homo sapiens, UniProt Q12974); test: In vitro phosphatase assay (DiFMUP hydrolysis), PRL-2;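 note: PRL-2 activity read as DiFMUP hydrolysis after 20 min at room temperature with drug, enzyme first pre-reduced at 4 °C for 20 min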
T2 construct: 6xHis (N, cleaved yes); made in house; host or cells: E. coli One Shot BL21 Star
T2 sequence (Q12974 1-167): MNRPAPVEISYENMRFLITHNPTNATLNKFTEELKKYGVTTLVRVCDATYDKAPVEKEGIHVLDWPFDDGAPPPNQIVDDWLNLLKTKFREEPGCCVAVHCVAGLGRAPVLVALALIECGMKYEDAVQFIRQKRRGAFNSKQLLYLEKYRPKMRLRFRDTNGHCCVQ

recombinant PRL-3 = target: T3, recombinant PRL-3 (Homo sapiens, UniProt O75365); test: In vitro phosphatase assay (DiFMUP hydrolysis), PRL-3
T3 construct: 6xHis (N, cleaved yes); made in house; host or cells: E. coli One Shot BL21 Star
T3 sequence (O75365 whole entry): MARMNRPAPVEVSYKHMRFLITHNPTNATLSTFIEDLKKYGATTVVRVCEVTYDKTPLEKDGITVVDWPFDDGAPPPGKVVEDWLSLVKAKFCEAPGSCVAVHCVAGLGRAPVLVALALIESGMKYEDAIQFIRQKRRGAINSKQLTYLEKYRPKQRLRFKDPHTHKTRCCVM

[1] = FDA-approved drug screen, compared to DMSO

SMILES | % Phosphatase Activity (compared to DMSO) PRL-1 (recombinant PRL-1; [1]) [%] | % Phosphatase Activity (compared to DMSO) PRL-2 (recombinant PRL-2; [1]) [%] | % Phosphatase Activity (compared to DMSO) PRL-3 (recombinant PRL-3; [1]) [%] | other results
CCCCC(CC)COC(=O)CC(C(=O)OCC(CC)CCCC)S(=O)(=O)O (stereo not drawn) [Docusate Sodium, reference compound] | – | – | – | % Phosphatase Activity (compared to DMSO) PRL-1 (recombinant PRL-1): 64%; IC50 (recombinant PRL-1; 2.5 µM protein, DiFMUP at KM, read-out: Calculated IC50, PRL-1 phosphatase activity): 94 ± 26 µM; % Phosphatase Activity (compared to DMSO) PRL-2 (recombinant PRL-2): 63%; IC50 (recombinant PRL-2; 2.5 µM protein, DiFMUP at KM, read-out: Calculated IC50, PRL-2 phosphatase activity): 140 ± 44 µM; % Phosphatase Activity (compared to DMSO) PRL-3 (recombinant PRL-3): 34%; IC50 (recombinant PRL-3; 2.5 µM protein, DiFMUP at KM, read-out: Calculated IC50, PRL-3 phosphatase activity): 43 ± 5 µM
C[C@@H]1CCO[C@H]2Cn3cc(C(=O)NCc4ccc(F)cc4F)c(=O)c(O)c3C(=O)N12 [Dolutegravir (GSK1349572)] | 105 | 101 | 99 | –
CCCCCCCCCCCC[N+](C)(C)CCOc1ccccc1 [Domiphen Bromide] | 106 | 104 | 84 | –
O=c1[nH]c2ccccc2n1CCCN1CCC(n2c(=O)[nH]c3cc(Cl)ccc32)CC1 [Domperidone] | 118 | 112 | 79 | –
NCCc1ccc(O)c(O)c1 [Dopamine HCl] | – | – | – | % Phosphatase Activity (compared to DMSO) PRL-1 (recombinant PRL-1): 125%; % Phosphatase Activity (compared to DMSO) PRL-2 (recombinant PRL-2): 119%; % Phosphatase Activity (compared to DMSO) PRL-3 (recombinant PRL-3): 82%
C[C@@H](O)[C@H]1C(=O)N2C(C(=O)O)=C(S[C@@H]3CN[C@H](CNS(N)(=O)=O)C3)[C@H](C)[C@H]12.O [Doripenem Hydrate] | 107 | 107 | 69 | –
CC(O)C(=O)O.CN1CCN(c2ccc3nc(-c4c(N)c5c(F)cccc5[nH]c4=O)[nH]c3c2)CC1 [Dovitinib (TKI258) Lactate] | 86 | 70 | 85 | –
CC(O)C(=O)O.CC(O)C(=O)O.CN1CCN(c2ccc3nc(-c4c(N)c5c(F)cccc5[nH]c4=O)[nH]c3c2)CC1 [Dovitinib (TKI-258) Dilactic Acid] | 92 | 80 | 91 | –
CN1CCN(c2ccc3nc(-c4c(N)c5c(F)cccc5[nH]c4=O)[nH]c3c2)CC1 [Dovitinib (TKI-258, CHIR-258)] | 87 | 96 | 74 | –
CCN1CC(CCN2CCOCC2)C(c2ccccc2)(c2ccccc2)C1=O.Cl (stereo not drawn) [Doxapram HCl] | 113 | 98 | 92 | –
COc1cc2nc(N3CCN(C(=O)C4COc5ccccc5O4)CC3)nc(N)c2cc1OC (stereo not drawn) [Doxazosin Mesylate] | 441 | 528 | 305 | –
C=C1/C(=C\C=C2/CCC[C@]3(C)[C@@H]([C@H](C)/C=C/[C@H](C)C(C)C)CC[C@@H]23)C[C@@H](O)C[C@@H]1O [Doxercalciferol] | 105 | 99 | 71 | –
C[C@H]1O[C@@H](n2cc(F)c(=O)[nH]c2=O)[C@H](O)[C@@H]1O [Doxifluridine] | 91 | 103 | 98 | –
Cn1c(=O)c2c(ncn2CC2OCCO2)n(C)c1=O [Doxofylline] | 103 | 109 | 79 | –
COc1cccc2c1C(=O)c1c(O)c3c(c(O)c1C2=O)C[C@@](O)(C(=O)CO)C[C@@H]3O[C@H]1C[C@H](N)[C@H](O)[C@H](C)O1 [Doxorubicin (Adriamycin)] | 75 | 74 | 73 | –
C[C@H]1c2cccc(O)c2C(=O)C2=C(O)[C@]3(O)C(=O)C(C(N)=O)=C(O)[C@@H](N(C)C)[C@@H]3[C@@H](O)[C@@H]21 [Doxycycline HCl] | 83 | 83 | 73 | –

SMILES | % Phosphatase Activity (compared to DMSO) PRL-1 (recombinant PRL-1; [1]) [%] | % Phosphatase Activity (compared to DMSO) PRL-2 (recombinant PRL-2; [1]) [%] | % Phosphatase Activity (compared to DMSO) PRL-3 (recombinant PRL-3; [1]) [%] | other results
CN(C)CCOC(C)(c1ccccc1)c1ccccn1 (stereo not drawn) [Doxylamine Succinate] | 91 | 83 | 71 | –
CCCCc1oc2ccc(NS(C)(=O)=O)cc2c1C(=O)c1ccc(OCCCN(CCCC)CCCC)cc1 [Dronedarone HCl] | 116 | 131 | 96 | –
O=C(CCCN1CC=C(n2c(=O)[nH]c3ccccc32)CC1)c1ccc(F)cc1 [Droperidol] | 85 | 106 | 71 | –
OCC(O)CN1CCN(c2ccccc2)CC1 (stereo not drawn) [Dropropizine] | 91 | 110 | 76 | –
C[C@]12CCC(=O)C=C1[C@@H]1C[C@@H]1[C@H]1[C@@H]3[C@@H]4C[C@@H]4[C@@]4(CCC(=O)O4)[C@@]3(C)CC[C@@H]12 [Drospirenone] | 90 | 89 | 71 | –
CNCC[C@H](Oc1cccc2ccccc12)c1cccs1 [Duloxetine HCl] | – | – | – | % Phosphatase Activity (compared to DMSO) PRL-1 (recombinant PRL-1): 97%; % Phosphatase Activity (compared to DMSO) PRL-2 (recombinant PRL-2): 107%; % Phosphatase Activity (compared to DMSO) PRL-3 (recombinant PRL-3): 89%
C[C@]12C=CC(=O)N[C@@H]1CC[C@@H]1[C@@H]2CC[C@]2(C)[C@@H](C(=O)Nc3cc(C(F)(F)F)ccc3C(F)(F)F)CC[C@@H]12 [Dutasteride] | 94 | 88 | 82 | –
CCCCOc1ccc(C(=O)CCN2CCCCC2)cc1 [Dyclonine HCl] | 91 | 103 | 102 | –
CC(=O)[C@H]1CC[C@H]2[C@@H]3C=CC4=CC(=O)CC[C@@]4(C)[C@@H]3CC[C@]12C [Dydrogesterone] | 91 | 98 | 67 | –
Cn1c(=O)c2c(ncn2CC(O)CO)n(C)c1=O (stereo not drawn) [Dyphylline] | 100 | 103 | 75 | –
CCN(c1cc(-c2ccc(CN3CCOCC3)cc2)cc(C(=O)NCc2c(C)cc(C)[nH]c2=O)c1C)C1CCOCC1 [EPZ-6438] | 85 | 77 | 95 | –
NC(=O)C1CCCc2c1[nH]c1ccc(Cl)cc21 (stereo not drawn) [EX 527 (Selisistat)] | 99 | 106 | 84 | –
Clc1ccc(COC(Cn2ccnc2)c2ccc(Cl)cc2Cl)cc1 (stereo not drawn) [Econazole nitrate] | 107 | 103 | 93 | –
CC1=NN(c2ccccc2)C(=O)C1 [Edaravone] | 90 | 82 | 72 | –
CN1CCc2nc(C(=O)N[C@@H]3C[C@@H](C(=O)N(C)C)CC[C@@H]3NC(=O)C(=O)Nc3ccc(Cl)cn3)sc2C1 [Edoxaban] | 110 | 99 | 106 | –
